Source: US11691970B2, “Pyrazolopyridinone compounds” (Janssen Pharmaceutica NV, priority 2017, dated 2023)
Structures can show the parent of a compound that is named as a salt.

Tests used:
[1] = test system: NIH/3T3 cells transfected with control vector; experiment: NIH/3T3 mock cell proliferation assay (counter assay, CellTiter Glo); type: cell-based; details: Mus musculus, NIH3T3, 72 h, 72-hr incubation, top concentration 30 μM, counter assay for general toxicity, read-out: NIH/3T3 MOCK CTG (IC50)
Protocol: NIH/3T3 Mock Cell Proliferation Assay
In day 1, 90 μL of cell suspension (NIH/3T3 cells transfected with the same control vector as in the above two proliferation assays) (total 30,000 cells per well in growth medium (DMEM containing 1% Glutamax, 10% FBS and 1% Pen/Strep)) was seeded in a 96-well plate and then incubated overnight at 37° C. and 5% CO2. In day 2, 10 μL of growth medium containing 10-fold stock solution of testing compound was added into cell cultures (9 dose points with 3× serial dilution, starting with 30 μM, 0.3% DMSO final). After 72-hr incubation at 37° C. and 5% CO2, in day 5 a volume of 50 μL CellTiter Glo (CTG) reagent was added into cell-containing 96-well plate and the plate was incubated at room temperature for 10 minutes before RLUs (relative light unit) were measured on a microplate reader with luminescence detection module.

[2] = target: T1, human FGFR3 wild type enzyme (cytoplasmic domain) (Homo sapiens, UniProt P22607); experiment: FGFR3 wild type mobility shift assay (enzymatic assay); type: biochemical; details: 75 μM ATP, 50 minutes at 30° C, Caliper EZ reader II
T1 construct: human FGFR3 wild type enzyme (cytoplasmic domain, from Carna Biosciences); purchased Carna Biosciences
T1 sequence (P22607 397-806 limits assumed): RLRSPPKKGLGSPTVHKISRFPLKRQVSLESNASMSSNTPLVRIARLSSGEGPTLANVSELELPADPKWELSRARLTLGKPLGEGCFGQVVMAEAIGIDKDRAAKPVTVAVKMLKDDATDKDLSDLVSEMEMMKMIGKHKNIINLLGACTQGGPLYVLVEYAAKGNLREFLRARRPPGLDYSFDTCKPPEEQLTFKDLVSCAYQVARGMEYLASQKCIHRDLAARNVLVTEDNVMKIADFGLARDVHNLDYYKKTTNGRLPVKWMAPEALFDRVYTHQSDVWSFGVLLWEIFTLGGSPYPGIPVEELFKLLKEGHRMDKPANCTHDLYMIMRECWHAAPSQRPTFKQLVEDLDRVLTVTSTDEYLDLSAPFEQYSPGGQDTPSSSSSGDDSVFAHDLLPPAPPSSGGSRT
Description: FGFR3 Wild Type Mobility Shift Assay (Enzymatic Assay)

[3] = target: T2, NIH/3T3 cells overexpressing FGFR3 WT-TACC3 fusion protein (Homo sapiens, UniProt P22607); experiment: NIH/3T3 FGFR3 WT-TACC3 cell proliferation assay (CellTiter Glo); type: cell-based; details: 72-hr incubation, top concentration 10 μM, read-out: NIH/3T3 FGFR3 WT-TACC3 CTG (IC50)
T2 construct: NIH/3T3 FGFR3 WT-TACC3 CTG (IC50); other: 72-hr incubation, CellTiter Glo, top concentration 10 μM; fused on or other part: Q9Y6A5 (Transforming acidic coiled-coil-containing protein 3)
T2 sequence (P22607 whole entry, change not shown, the tested form may be a part): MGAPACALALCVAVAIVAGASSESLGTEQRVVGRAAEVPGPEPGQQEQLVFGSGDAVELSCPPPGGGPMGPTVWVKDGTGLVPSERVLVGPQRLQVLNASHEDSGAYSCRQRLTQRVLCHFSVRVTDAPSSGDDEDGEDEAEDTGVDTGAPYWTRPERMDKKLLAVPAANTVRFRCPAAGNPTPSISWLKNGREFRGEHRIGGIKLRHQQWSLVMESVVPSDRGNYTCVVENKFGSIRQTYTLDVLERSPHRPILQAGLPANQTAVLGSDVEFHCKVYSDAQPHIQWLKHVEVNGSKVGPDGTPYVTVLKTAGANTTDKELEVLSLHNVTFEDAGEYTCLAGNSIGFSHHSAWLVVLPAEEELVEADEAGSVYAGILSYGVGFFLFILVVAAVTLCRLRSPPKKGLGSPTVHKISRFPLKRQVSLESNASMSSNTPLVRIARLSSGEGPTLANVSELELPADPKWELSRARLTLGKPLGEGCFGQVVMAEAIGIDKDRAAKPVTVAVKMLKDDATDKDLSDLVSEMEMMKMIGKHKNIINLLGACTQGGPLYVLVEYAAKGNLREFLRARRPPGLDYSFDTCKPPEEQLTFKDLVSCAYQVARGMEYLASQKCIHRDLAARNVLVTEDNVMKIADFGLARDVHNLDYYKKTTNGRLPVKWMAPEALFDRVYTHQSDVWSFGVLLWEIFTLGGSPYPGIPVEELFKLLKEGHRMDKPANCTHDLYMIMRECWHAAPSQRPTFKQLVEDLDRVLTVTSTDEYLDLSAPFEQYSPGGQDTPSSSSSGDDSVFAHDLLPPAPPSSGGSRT
Protocol: NIH/3T3 FGFR3 WT-TACC3 Cell Proliferation Assay
In day 1, 90 μL of cell suspension (NIH/3T3 cells overexpressing FGFR3 WT-TACC3 fusion protein) (total 30,000 cells per well in growth medium (DMEM containing 1% Glutamax, 10% FBS and 1% Pen/Strep)) was seeded in a 96-well plate and then incubated overnight at 37° C. and 5% CO2. […] After 72-hr incubation at 37° C. and 5% CO2, in day 5 a volume of 50 μL CellTiter Glo (CTG) reagent was added into cell-containing 96-well plate and the plate was incubated at room temperature for 10 minutes before RLUs (relative light unit) were measured on a microplate reader with luminescence detection module.

[4] = target: T3, human FGFR3 V555L enzyme (cytoplasmic domain carrying V555L mutation) (Homo sapiens, UniProt P22607, V555L); experiment: FGFR3 V555L mobility shift assay (enzymatic assay); type: biochemical; details: 40 μM ATP, 50 minutes at 30° C, Caliper EZ reader II
T3 construct: human FGFR3 V555L enzyme (cytoplasmic domain carrying V555L mutation, from Carna Biosciences); purchased Carna Biosciences
T3 sequence (P22607 397-806 V555L limits assumed): as the sequence (P22607 397-806 limits assumed) above, with V159L counted along it
Description: FGFR3 V555L Mobility Shift Assay (Enzymatic Assay)

| SMILES | IC50 [2] [nM] | GI50 [3] [nM] | IC50 [4] [nM] | IC50 [1] [nM] |
| --- | --- | --- | --- | --- |
| CCn1cc2[nH]c(=O)c(-c3nc4c(F)cc(N5CC(OC)C5)cc4[nH]3)c(N[C@@H](C)c3ncccn3)c2n1 [Compound 49, (S)-2-ethyl-6-(4-fluoro-6-(3-methoxyazetidin-1-yl)-1H-benzo[d]imidazol-2-yl)-7-((1-(pyrimidin-2-yl)ethyl)amino)-2H-pyrazolo[4,3-b]pyridin-5(4H)-one] | 2.51 | 28.1 | – | 460 |
| C[C@H](Nc1c(-c2nc3ccc(N4CCOC(F)(F)C4)cc3[nH]2)c(=O)[nH]c2cn(C)nc12)c1ncccn1 [Compound 25, (S)-6-(6-(2,2-difluoromorpholino)-1H-benzo[d]imidazol-2-yl)-2-methyl-7-((1-(pyrimidin-2-yl)ethyl)amino)-2H-pyrazolo[4,3-b]pyridin-5(4H)-one] | 0.495 | 22.3 | – | 1210 |
| C[C@@H](Nc1c(-c2nc3ccc(N4CCN(C)CC4)cc3[nH]2)c(=O)[nH]c2cn(C)nc12)c1ncccc1C(F)(F)F (single isomer, unassigned) [Compound 32, (R*)-2-methyl-6-(6-(4-methylpiperazin-1-yl)-1H-benzo[d]imidazol-2-yl)-7-((1-(3-(trifluoromethyl)pyridin-2-yl)ethyl)amino)-2H-pyrazolo[4,3-b]pyridin-5(4H)-one 0.2 formate] | 4.29 | 195 | – | 4230 |
| CCn1cc2[nH]c(=O)c(-c3nc4cnc(N5CCOCC5)cc4[nH]3)c(N[C@@H](C)c3ccccn3)c2n1 [Compound 47, (S)-2-ethyl-6-(6-morpholino-1H-imidazo[4,5-c]pyridin-2-yl)-7-((1-(pyridin-2-yl)ethyl)-amino)-2,4-dihydro-5H-pyrazolo[4,3-b]pyridin-5-one] | 2.03 | 17.4 | – | 1040 |
| C[C@H](Nc1c(-c2nc3ccc(N4CCO[C@@H](C(F)(F)F)C4)cc3[nH]2)c(=O)[nH]c2cn(C)nc12)c1ncccn1 (relative stereo) [Compound 7, 2-Methyl-7-(((S*)-1-(pyrimidin-2-yl)ethyl)amino)-6-(6-((R*)-2-(trifluoromethyl)-morpholino)-1H-benzo[d]imidazol-2-yl)-2H-pyrazolo[4,3-b]pyridin-5(4H)-one] | 0.399 | 10.5 | – | 1080 |
| CC(Nc1c(-c2nc3ccc(N4CCOCC4)cc3[nH]2)c(=O)[nH]c2cn(C)nc12)c1cscn1 (single isomer, unassigned) [Compound 41, (S*)-2-methyl-6-(6-morpholino-1H-benzo[d]imidazol-2-yl)-7-((1-(thiazol-4-yl)ethyl)-amino)-2H-pyrazolo[4,3-b]pyridin-5(4H)-one] | 23.7 | 5.57 | 50.8 | 425 |
| COCC(Nc1c(-c2nc3c(F)cc(N4CCOCC4)cc3[nH]2)c(=O)[nH]c2cn(C)nc12)c1ncccn1 (single isomer, unassigned) [Compound 29, (S*)-6-(4-fluoro-6-morpholino-1H-benzo[d]imidazol-2-yl)-7-((2-methoxy-1-(pyrimidin-2-yl)ethyl)amino)-2-methyl-2H-pyrazolo[4,3-b]pyridin-5(4H)-one] | 8.56 | 98.3 | – | 1530 |
| C[C@H](Nc1c(-c2nc3ccc(C4CCOCC4)c(F)c3[nH]2)c(=O)[nH]c2cn(C)nc12)c1ncccn1 [Compound 13, (S)-6-(7-fluoro-6-(tetrahydro-2H-pyran-4-yl)-1H-benzo[d]imidazol-2-yl)-2-methyl-7-((1-(pyrimidin-2-yl)ethyl)amino)-2H-pyrazolo[4,3-b]pyridin-5(4H)-one] | 1.15 | 22.1 | – | 2100 |
| CCn1cc2[nH]c(=O)c(-c3nc4ccc(N5CCOCC5)cc4[nH]3)c(NC(C)c3cocn3)c2n1 (single isomer, unassigned) [Compound 4A, (S*)-2-ethyl-6-(6-morpholino-1H-benzo[d]imidazol-2-yl)-7-((1-(oxazol-4-yl)ethyl)amino)-2H-pyrazolo[4,3-b]pyridin-5(4H)-one] | 3.77 | 26.1 | – | 288 |
| CC(Nc1c(-c2nc3ccc(N4CCCCC4)c(F)c3[nH]2)c(=O)[nH]c2cn(C)nc12)c1ncccn1 (single isomer, unassigned) [Compound 15, (S*)-6-(7-fluoro-6-(piperidin-1-yl)-1H-benzo[d]imidazol-2-yl)-2-methyl-7-((1-(pyrimidin-2-yl)ethyl)amino)-2H-pyrazolo[4,3-b]pyridin-5(4H)-one] | 1.06 | 16.9 | – | 3700 |
| C[C@H](Nc1c(-c2nc3ccc(N4CCCCC4)cc3[nH]2)c(=O)[nH]c2cn(C)nc12)c1ccccn1 [Compound 33, (S)-2-methyl-6-(6-(piperidin-1-yl)-1H-benzo[d]imidazol-2-yl)-7-((1-(pyridin-2-yl)ethyl)-amino)-2H-pyrazolo[4,3-b]pyridin-5(4H)-one] | 17.5 | 258 | – | 6530 |
| CC(Nc1c(-c2nc3ccc(N4CCCCC4)cc3[nH]2)c(=O)[nH]c2cn(C)nc12)c1ncccn1 (single isomer, unassigned) [Compound 34, (S*)-2-methyl-6-(6-(piperidin-1-yl)-1H-benzo[d]imidazol-2-yl)-7-((1-(pyrimidin-2-yl)-ethyl)amino)-2H-pyrazolo[4,3-b]pyridin-5(4H)-one] | 1.22 | 23.3 | – | 734 |

Second part, led by results:

| IC50 [2] [nM] | GI50 [3] [nM] | IC50 [4] [nM] | SMILES | IC50 [1] [nM] |
| --- | --- | --- | --- | --- |
| 0.788 | 44.6 | – | COc1cc(N2CCOCC2)cc2[nH]c(-c3c(NC(C)c4ncccn4)c4nn(C)cc4[nH]c3=O)nc12 (single isomer, unassigned) [Compound 51, (S*)-6-(4-methoxy-6-morpholino-1H-benzo[d]imidazol-2-yl)-2-methyl-7-((1-(pyrimidin-2-yl)ethyl)amino)-2,4-dihydro-5H-pyrazolo[4,3-b]pyridin-5-one] | 1160 |
| 3.71 | 17.5 | – | CC(Nc1c(-c2nc3cc(C(F)(F)F)c(N4CCOCC4)cc3[nH]2)c(=O)[nH]c2cn(C)nc12)c1ncccn1 (single isomer, unassigned) [Compound 21, (R*)-2-methyl-6-(6-morpholino-5-(trifluoromethyl)-1H-benzo[d]imidazol-2-yl)-7-((1-(pyrimidin-2-yl)ethyl)amino)-2H-pyrazolo[4,3-b]pyridin-5(4H)-one] | 5900 |
| 1.78 | 19.7 | – | CCn1cc2[nH]c(=O)c(-c3nc4cc(C)c(N5CCOCC5)cc4[nH]3)c(N[C@@H](C)c3ncccn3)c2n1 [Compound 5, (S)-2-ethyl-6-(5-methyl-6-morpholino-1H-benzo[d]imidazol-2-yl)-7-((1-(pyrimidin-2-yl)-ethyl)amino)-2,4-dihydro-5H-pyrazolo[4,3-b]pyridin-5-one] | 1050 |
| 0.542 | 6.78 | – | C[C@H](Nc1c(-c2nc3ccc(N4CCO[C@H](C(F)(F)F)C4)cc3[nH]2)c(=O)[nH]c2cn(C)nc12)c1ncccn1 (relative stereo) [Compound 8, 2-Methyl-7-(((S*)-1-(pyrimidin-2-yl)ethyl)amino)-6-(6-((S*)-2-(trifluoromethyl)-morpholino)-1H-benzo[d]imidazol-2-yl)-2H-pyrazolo[4,3-b]pyridin-5(4H)-one] | 444 |
| 0.618 | 17.1 | – | CC(Nc1c(-c2nc3cc(F)c(N4CCOCC4)cc3[nH]2)c(=O)[nH]c2cn(C)nc12)c1ncccn1 (single isomer, unassigned) [Compound 9, (S*)-6-(5-Fluoro-6-morpholino-1H-benzo[d]imidazol-2-yl)-2-methyl-7-((1-(pyrimidin-2-yl)ethyl)amino)-2H-pyrazolo[4,3-b]pyridin-5(4H)-one] | 691 |
| 8.17 | 21.5 | – | CC(Nc1c(-c2nc3cc(C(F)(F)F)c(N4CCOCC4)cc3[nH]2)c(=O)[nH]c2cn(C)nc12)c1ncccn1 (racemic) [Compound 19, (Rac)-2-Methyl-6-(6-morpholino-5-(trifluoromethyl)-1H-benzo[d]imidazol-2-yl)-7-((1-(pyrimidin-2-yl)ethyl)amino)-2H-pyrazolo[4,3-b]pyridin-5(4H)-one] | 3990 |
